From ChEMBL document CHEMBL1154354, “Synthetic peptides containing a conserved sequence motif of the Id protein family modulate vascular smooth muscle cell phenotype” (Bioorg Med Chem Lett, 2009)
Activity calls are given as the source filed them. The calls are words filed in the database; no cut-off is given here.

Assays:
[1] = Inhibition of PDGF-stimulated HSMC migration after 8 hrs by Boyden chamber assay; assay type: functional, Homo sapiens; design: scale not given: the % may be the effect or the level left
[2] = (§1) Antiproliferative activity against HSMC expressing Id-protein assessed as reduction in cell growth after 72 hrs by Coulter counting; assay type: functional, Homo sapiens; design: scale not given: the % may be the effect or the level left
[3] = Drug uptake by HSMC assessed as mean fluorescence index after 72 hrs by FACS; assay type: ADME; conditions: human
[4] = Perinuclear localization in HSMC after 6 hrs by fluorescence microscopy; assay type: ADME, cell-based; conditions: human
HSMC = test: as §1; assay type: functional; conditions: Homo sapiens
[5] = target: T1, DNA-binding protein inhibitor ID-1 (Homo sapiens) (UniProt P41134); test: Inhibition of ID1-protein in HSMC assessed as increase in alpha-actin mRNA level by real time PCR
T1 sequence (whole entry): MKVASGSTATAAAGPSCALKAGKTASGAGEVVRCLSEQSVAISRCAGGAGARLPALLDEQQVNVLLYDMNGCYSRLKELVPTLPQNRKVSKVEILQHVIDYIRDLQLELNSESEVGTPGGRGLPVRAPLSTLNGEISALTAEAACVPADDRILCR

[6] = target: T1, DNA-binding protein inhibitor ID-1 (Homo sapiens); test: Inhibition of ID1-protein in HSMC assessed as increase in alpha-actin protein level by Western blotting
[7] = target: T1, DNA-binding protein inhibitor ID-1 (Homo sapiens); test: Binding affinity to ID-HLH domain by CD spectroscoy
[8] = target: T1, DNA-binding protein inhibitor ID-1 (Homo sapiens); test: Decrease in ID1-protein level in HSMC by Western blotting

CC[C@H](C)[C@H](NC(=O)[C@H](CCC(=O)O)NC(=O)[C@@H](NC(=O)[C@H](CCCCN)NC(=O)C1CCC(C(NC(=O)c2ccccc2)C(=O)N[C@@H](CCCCN)C(=O)N[C@H](C(=O)N[C@@H](CCC(=O)O)C(=O)N[C@H](C(=O)N[C@@H](CC(C)C)C(=O)N[C@@H](CCC(N)=O)C(=O)N[C@@H](Cc2cnc[nH]2)C(=O)N[C@H](C(=O)N[C@H](C(=O)N[C@@H](CC(=O)O)C(=O)N[C@@H](Cc2ccc(O)cc2)C(N)=O)[C@@H](C)CC)C(C)C)[C@@H](C)CC)C(C)C)C1)C(C)C)C(=O)N[C@@H](CC(C)C)C(=O)N[C@@H](CCC(N)=O)C(=O)N[C@@H](Cc1cnc[nH]1)C(=O)N[C@H](C(=O)N[C@H](C(=O)N[C@@H](CC(=O)O)C(=O)N[C@@H](Cc1ccc(O)cc1)C(N)=O)[C@@H](C)CC)C(C)C (stereo partly drawn)
Activity [1]: 20% | Activity [2]: 40%

CC[C@H](C)[C@H](NC(=O)[C@H](CCC(=O)O)NC(=O)[C@@H](NC(=O)[C@H](CCCCN)NC(=O)[C@@H]1CC[C@H]([C@@H](NC(=O)c2ccccc2)C(=O)N[C@@H](CCCCN)C(=O)N[C@H](C(=O)N[C@@H](CCC(=O)O)C(=O)N[C@H](C(=O)N[C@@H](CC(C)C)C(=O)N[C@@H](CCC(N)=O)C(=O)N[C@@H](Cc2cnc[nH]2)C(=O)N[C@H](C(=O)N[C@H](C(=O)N[C@@H](CC(=O)O)C(=O)N[C@@H](Cc2ccc(O)cc2)C(N)=O)[C@@H](C)CC)C(C)C)[C@@H](C)CC)C(C)C)C1)C(C)C)C(=O)N[C@@H](CC(C)C)C(=O)N[C@@H](CCC(N)=O)C(=O)N[C@@H](Cc1cnc[nH]1)C(=O)N[C@H](C(=O)N[C@H](C(=O)N[C@@H](CC(=O)O)C(=O)N[C@@H](Cc1ccc(O)cc1)C(N)=O)[C@@H](C)CC)C(C)C
Activity [2]: 40%

CC[C@H](C)[C@H](NC(=O)[C@H](CCC(=O)O)NC(=O)[C@@H](NC(=O)[C@H](CCCCN)NC(=O)[C@H]1CC[C@@H]([C@H](NC(=O)c2cccc3c2C(=O)OC32c3ccc(O)cc3Oc3cc(O)ccc32)C(=O)O[C@@H](CCCCN)C(=O)N[C@H](C(=O)N[C@@H](CCC(=O)O)C(=O)N[C@H](C(=O)N[C@@H](CC(C)C)C(=O)N[C@@H](CCC(N)=O)C(=O)N[C@@H](Cc2cnc[nH]2)C(=O)N[C@H](C(=O)N[C@H](C(=O)N[C@@H](CC(=O)O)C(=O)N[C@@H](Cc2ccc(O)cc2)C(=O)N[C@@H](CCCCN)C(=O)N[C@@H](CCCCN)C(=O)N[C@@H](CCCCN)C(N)=O)[C@@H](C)CC)C(C)C)[C@@H](C)CC)C(C)C)C1)C(C)C)C(=O)N[C@@H](CC(C)C)C(=O)N[C@@H](CCC(N)=O)C(=O)N[C@@H](Cc1cnc[nH]1)C(=O)N[C@H](C(=O)N[C@H](C(=O)N[C@@H](CC(=O)O)C(=O)N[C@@H](Cc1ccc(O)cc1)C(=O)N[C@@H](CCCCN)C(=O)N[C@@H](CCCCN)C(=O)N[C@@H](CCCCN)C(N)=O)[C@@H](C)CC)C(C)C
Activity [3]: Dose-dependent effect | Activity [4]: Active

H-KVEILQHVIDYIRDLQ-OH
Activity (HSMC): inactive

CC[C@H](C)[C@H](NC(=O)[C@H](CCC(=O)O)NC(=O)[C@@H](NC(=O)[C@H](CCCCN)NC(=O)[C@H]1CC[C@@H]([C@H](NC(=O)c2ccccc2)C(=O)N[C@@H](CCCCN)C(=O)N[C@H](C(=O)N[C@@H](CCC(=O)O)C(=O)N[C@H](C(=O)N[C@@H](CC(C)C)C(=O)N[C@@H](CCC(N)=O)C(=O)N[C@@H](Cc2cnc[nH]2)C(=O)N[C@H](C(=O)N[C@H](C(=O)N[C@@H](CC(=O)O)C(=O)N[C@@H](Cc2ccc(O)cc2)C(N)=O)[C@@H](C)CC)C(C)C)[C@@H](C)CC)C(C)C)C1)C(C)C)C(=O)N[C@@H](CC(C)C)C(=O)N[C@@H](CCC(N)=O)C(=O)N[C@@H](Cc1cnc[nH]1)C(=O)N[C@H](C(=O)N[C@H](C(=O)N[C@@H](CC(=O)O)C(=O)N[C@@H](Cc1ccc(O)cc1)C(N)=O)[C@@H](C)CC)C(C)C
Activity [5]: Dose-dependent effect | Activity [6]: Dose-dependent effect | K0.5 [7]: 6.6 µM | Activity [8]: Active | Activity [2]: 40%

Ac-LYDMNGCYSRLKELVPTLPQNRKVSKVEILQHVIDYIRDLQ-NH2
Activity (HSMC): Toxic

CC[C@H](C)[C@H](NC(=O)[C@H](Cc1ccc(O)cc1)NC(=O)[C@H](CC(=O)O)NC(=O)[C@@H](NC(=O)[C@@H](NC(=O)[C@H](Cc1cnc[nH]1)NC(=O)[C@H](CCC(N)=O)NC(=O)[C@H](CC(C)C)NC(=O)[C@@H](NC(=O)[C@H](CCC(=O)O)NC(=O)[C@@H](NC(=O)[C@H](CCCCN)NC(=O)C1CCC(C(NC(=O)c2ccccc2)C(=O)N[C@@H](CCCCN)C(=O)N[C@H](C(=O)N[C@@H](CCC(=O)O)C(=O)N[C@H](C(=O)N[C@@H](CC(C)C)C(=O)N[C@@H](CCC(N)=O)C(=O)N[C@@H](Cc2cnc[nH]2)C(=O)N[C@H](C(=O)N[C@H](C(=O)N[C@@H](CC(=O)O)C(=O)N[C@@H](Cc2ccc(O)cc2)C(=O)N[C@H](C(=O)N[C@@H](CCCNC(=N)N)C(=O)N[C@@H](CC(C)C)C(=O)N[C@@H](CC(=O)O)C(=O)N[C@@H](CCC(N)=O)C(N)=O)[C@@H](C)CC)[C@@H](C)CC)C(C)C)[C@@H](C)CC)C(C)C)C1)C(C)C)[C@@H](C)CC)C(C)C)[C@@H](C)CC)C(=O)N[C@@H](CCCNC(=N)N)C(=O)N[C@@H](CC(C)C)C(=O)N[C@@H](CC(=O)O)C(=O)N[C@@H](CCC(N)=O)C(N)=O (stereo partly drawn)
Activity [2]: 30%
